Measured values: paper PMC10186366 (ACS Pharmacology & Translational Science, 2023)

Molecular target: T1, human ATIC (AICARFTase) (Homo sapiens, UniProt P31939)
T1 construct: full-length human ATIC; made in house; host or cells: E. coli Rosetta (DE3)pLysS
Experiment: In vitro AICARFTase (ATIC) enzyme assay (THF formation from 10-CHOTHF)
Type: biochemical
Conditions: monoglutamyl antifolates; mean (standard error), at least three replicate assays; tested up to 200 μM
Method: We directly tested inhibition potencies by in vitro assays using purified GARFTase and ATIC (AICARFTase) to calculate inhibition dissociation constants (Ki’s) (Table 2).[45]
N-terminal hexahistidine-tagged GARFTase (formyltransferase domain; residues 808–1010) and full-length human ATIC were expressed in Rosetta (DE3)pLysS cells.[45],[48] Cultures (1 L) were grown at 37 °C in LB media with 100 μg/mL ampicillin and 34 μg/mL chloramphenicol until OD600 reached 0.6. Isopropyl β-D-1-thiogalactopyranoside (500 μM) was added, and the cells were incubated at 20 °C for 16–18 h. The cultures were pelleted and resuspended in 40 mL of 25 mM Tris–HCl, pH 7.5, 300 mM NaCl, 5 mM β-mercaptoethanol (β-ME), 10 mM CaCl2, 10 mM MgCl2, 40 mg lysozyme, and 8 U DNAse I (Sigma). The cells were lysed by emulsification.
His-ATIC was purified from the lysate by immobilized metal affinity chromatography with a 4 mL Ni-NTA column (Gold Biotechnology).[45] The column was washed with 5 CV of 25 mM Tris–HCl, pH 7.5, 300 mM NaCl, 10 mM imidazole, and 5 mM β-ME (wash buffer) followed by 5 CV of the wash buffer containing 25 mM imidazole. The protein was eluted with 5 CV of the elution buffer containing components of the wash buffer with 300 mM imidazole. Further purification was by ÄKTA FPLC (GE Healthcare) with a Superdex 200 16/60 (GE Healthcare) column equilibrated with 20 mM Tris–HCl, pH 7.5, 150 mM NaCl, 50 mM KCl, 5 mM EDTA, and 5 mM dithiothreitol (DTT). His-ATIC was stored at 150 μM at 4 °C in this buffer (up to 6 months) or at 100 μM with 20% glycerol at −80 °C for longer-term storage.
GARFTase catalytic activity was measured by monitoring THF formation from 10-CHOTHF.[32],[45],[48] GARFTase assays included 40 μM 10-CHO-THF, 50 nM His-GARFTase, 15 μM α,β-GAR, and a range of inhibitor concentrations in 25 mM Tris–HCl, pH 8.0, 300 mM NaCl, and 5 mM β-ME at 37 °C.[45] AICARFTase catalytic activity was measured by monitoring THF formation from 10-CHOTHF.[54] Reactions included 50 μM 10-CHOTHF, 100 nM His-ATIC, 50 μM ZMP, and inhibitors in 32.6 mM Tris–HCl, pH 7.5, 25 mM KCl, and 5 mM β-ME at 25 ° C.[45] Kinetic measurements were recorded in triplicate in a UV-transparent 96-well plate (Costar 3635) at 298 nm using a BioTek Synergy Neo2 Plate Reader. Initial slopes were graphed against inhibitor concentrations and fit to a three-parameter nonlinear regression to calculate IC50 values for each compound (GraphPad Prism 8.0). […] SHMT2 activity was assayed by monitoring NADH production with a coupled assay including 500 nM His-SHMT2 and 10 μM His-MTHFD2 ([…] molar ratio His-SHMT2/His-MTHFD2). NADH production by His-MTHFD2 was monitored by fluorescence at 470 nm with excitation at 360 nm (Synergy Neo2 Biotek plate reader). Inhibition constants (Ki’s) were calculated from the IC50 values using the equation Ki = IC50/([S]/KM + 1) and the Km and substrate concentration for THF. The THF concentration in the reaction was […]. The calculated Km value for THF with His-SHMT2 was 62.8 μM.

T1 sequence (P31939 whole entry): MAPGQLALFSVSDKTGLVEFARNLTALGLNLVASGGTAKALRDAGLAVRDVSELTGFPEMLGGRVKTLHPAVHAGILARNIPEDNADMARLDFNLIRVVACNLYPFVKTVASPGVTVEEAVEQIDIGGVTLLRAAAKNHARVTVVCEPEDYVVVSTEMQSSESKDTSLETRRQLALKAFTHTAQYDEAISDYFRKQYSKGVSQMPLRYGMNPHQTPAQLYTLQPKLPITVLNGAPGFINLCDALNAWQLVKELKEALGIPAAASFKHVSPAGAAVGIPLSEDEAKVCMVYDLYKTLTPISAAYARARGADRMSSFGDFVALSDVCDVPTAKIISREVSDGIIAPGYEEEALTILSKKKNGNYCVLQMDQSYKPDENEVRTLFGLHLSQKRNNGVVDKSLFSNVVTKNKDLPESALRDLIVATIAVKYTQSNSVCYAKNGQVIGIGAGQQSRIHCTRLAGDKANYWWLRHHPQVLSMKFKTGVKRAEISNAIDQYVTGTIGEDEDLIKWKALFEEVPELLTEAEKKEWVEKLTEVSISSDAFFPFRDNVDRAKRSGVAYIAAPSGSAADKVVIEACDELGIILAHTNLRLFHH

Compound	Ki
Nc1nc2sc(CCCc3ccc(C(=O)N[C@@H](CCC(=O)O)C(=O)O)cc3)cc2c(=O)[nH]1 [Compound 1]	> 200 µM
Nc1nc2sc(CCCCc3cccc(C(=O)N[C@@H](CCC(=O)O)C(=O)O)n3)cc2c(=O)[nH]1 [Compound 3, (6-(4-(2-Amino-4-oxo-3,4-dihydrothieno[2,3-d]pyrimidin-6-yl)butyl)picolinoyl)-L-glutamic Acid]	18.4 µM
Nc1nc2sc(CCCCc3ccc(C(=O)N[C@@H](CCC(=O)O)C(=O)O)nc3)cc2c(=O)[nH]1 [Compound 4, (5-(4-(2-Amino-4-oxo-3,4-dihydrothieno[2,3-d]pyrimidin-6-yl)butyl)picolinoyl)-L-glutamic Acid]	12.1 µM
Nc1nc2sc(CCCCc3cnc(C(=O)N[C@@H](CCC(=O)O)C(=O)O)c(F)c3)cc2c(=O)[nH]1 [Compound 5, (5-(4-(2-Amino-4-oxo-3,4-dihydrothieno[2,3-d]pyrimidin-6-yl)butyl)-3-fluoropicolinoyl)-L-glutamic Acid]	> 200 µM
Nc1nc2sc(CCCc3ccc(C(=O)N[C@@H](CCC(=O)O)C(=O)O)c(F)c3)cc2c(=O)[nH]1 [Compound 6, (4-(3-(2-Amino-4-oxo-3,4-dihydrothieno[2,3-d]pyrimidin-6-yl)propyl)-2-fluorobenzoyl)-L-glutamic Acid]	7.3 µM
Nc1nc2sc(CCCCc3ccc(C(=O)N[C@@H](CCC(=O)O)C(=O)O)c(F)c3)cc2c(=O)[nH]1 [Compound 7, (4-(4-(2-Amino-4-oxo-3,4-dihydrothieno[2,3-d]pyrimidin-6-yl)butyl)-2-fluorobenzoyl)-L-glutamic Acid]	19.4 µM
Nc1nc2sc(CCCc3csc(C(=O)N[C@@H](CCC(=O)O)C(=O)O)c3F)cc2c(=O)[nH]1 [Compound 8, (4-(3-(2-Amino-4-oxo-3,4-dihydrothieno[2,3-d]pyrimidin-6-yl)propyl)-3-fluorothiophene-2-carbonyl)-L-glutamic Acid]	14.5 µM
Nc1nc2sc(CCCCc3csc(C(=O)N[C@@H](CCC(=O)O)C(=O)O)c3F)cc2c(=O)[nH]1 [Compound 9, (4-(4-(2-Amino-4-oxo-3,4-dihydrothieno[2,3-d]pyrimidin-6-yl)butyl)-3-fluorothiophene-2-carbonyl)-L-glutamic Acid]	23.7 µM
